Experimental data taken from US6489307B1, “Antisense compositions targeted to β1-adrenoceptor-specific mRNA and methods of use” (University of Florida, priority 1998, dated 2002).
“And” between values parts separate entries of the source, which are not always exact repeats. Equal values may be shown once. “Also recorded” adds a separate entry of the source.

Tests used:
Total (β1+β2) β-ARs = test: β-AR binding assay (ICYP saturation) on heart ventricle membranes after i.v. injection; format: in vivo, rat (SHR); settings: cardiac ventricles of SHRs 4 days after treatment (1 mg/kg i.v.)
Method: (§1) Four days after intravenous injection of saline (n=6) or 1 mg/kg inverted ODN (n=6) or 2, 4, 10 or 18 days after injection of 1 mg/kg β1-AS-ODN (n=24), animals were euthanized, and membranes were prepared from heart ventricles as previously described (Baker and Pitha, 1982). For saturation experiments, 100 μg membrane protein was incubated in triplicate with 6 concentrations of [^125I](^−)-iodocyanopindolol (ICYP, NEN Life Science, 6.25 to 100 pmol/L) in a total volume of 250 μL containing 50 mmol/L Tris-HCl (pH 7.4), 5 mmol/L MgCl2 at 36° C. for 60 minutes. The nonspecific and β2-AR-binding levels were determined in the presence of 1 μmol/L (±)-alprenolol and 150 nmol/L CGP20712A (RBI), respectively. Then the reaction mixture was passed through Whatman (GF/B glass fiber filter using a Brandel harvester, and the bound radioactivity was counted for 1 min.
(§2) Four days after intravenous injection of saline (n=6) or 1 mg/kg inverted ODN (n=6), or 2, 4, 10, 18 days after injection of 1 mg/kg β1-AS-ODN (n=24), animals were sacrificed and membranes were prepared from heart ventricles as previously described (Baker and Pitha, 1982). For saturation studies, 100 μg membrane protein was incubated in triplicate with six concentrations of ^125I-(−)iodocyanopindolol (I-CYP, NEN Life Science, 6.25-100 pM) in a total volume of 250 μl containing 50 mM Tris-HCl (pH 7.4), 5 mM MgCl2 at 36° C. for 60 min. The nonspecific and β2-adrenoceptor binding levels were determined in the presence of 1 μM (±)-alprenolol and 150 nM CGP20712A (RBI), respectively. Then the reaction mixture was passed through Whatman GF/B glass fiber filter using Brandel harvester and the bound radioactivity was counted for one min.

β1-ARs = target: T1, β1-ARs (Rattus norvegicus, UniProt P18090); test: as above; format: in vivo, rat (SHR); settings: for Bmax, β1: cardiac ventricles of SHRs 4 days after treatment (1 mg/kg i.v.)
T1 construct: membranes were prepared from heart ventricles as previously described; from tissue; host or cells: heart ventricles of SHR
Method: as §1, §2

β2-ARs = target: T2, β2-ARs (Rattus norvegicus, UniProt P10608); test: as above; format: in vivo, rat (SHR); settings: for Bmax, β2: cardiac ventricles of SHRs 4 days after treatment (1 mg/kg i.v.)
T2 construct: membranes were prepared from heart ventricles as previously described; from tissue; host or cells: heart ventricles of SHR
Method: as §1, §2

isolated rat heart = test: Isolated perfused heart model, myocardial ischemia-reperfusion; format: in vivo, Sprague-Dawley rats; settings: for ischemia-reperfusion-induced myocardial dysfunction (LVSP, dLVP, LVEDP, CPP): ODN 200 μg/rat i.v. with liposomes 4 days before, 30 min ischemia, 30 min reperfusion; for ischemia-reperfusion induced ventricular abnormality (dLVP, CPP, LVEDP): ODN 1 mg/kg i.v. 4 days before, atenolol 2 mg/kg 6 hr before
Method: Male Sprague-Dawley rats weighing 200-250 g were injected intravenously with either AS-ODNs (n=7) or IN-ODNs (n=7) at a dose of 200 μg/rat 4 days before excising the hearts. DOTAP/DOPE liposomes (700 μg/rat) were given along with ODNs.
The hearts were excised rapidly and placed in ice-cold Kreb-Henseleit buffer (mmol/L: NaCl 118, KCl 4.7, KH2PO4 1.2, MgSO4 1.2, CaCl2 1.25, NaHCO3 25, and glucose 11, pH 7.4). Within one min, the hearts were transferred to an isolated perfusion apparatus and perfused via the aorta with oxygen-saturated (95% O2+5% CO2) Kreb-Henseleit buffer kept at 37° C. with the use of a MasterFlex pump (model 7015-21, Cole-Palmer Instrument Co.) according to the modified Langendroff procedure (Yang et al., 1998; Neely and Rovetto, 1975). The heart was placed in a semi-closed circulating water-warmed (37° C.) air chamber, paced atrially with a Medtronic 5320 pacemaker at a rate of 300 bpm, and perfused at a constant flow (5.5-6.0 ml/per min). Coronary perfusion pressure (CPP) was measured via a catheter placed just proximal to the aorta and connected to a Gould Statham P23ID pressure transducer. A latex balloon filled with water and connected to a Gould Statham P23ID pressure transducer was inserted in the left ventricle through the left atrium to measure left ventricular end-diastolic pressure (LVEDP), left ventricular systolic pressure (LVSP), and developed left ventricular pressure (dLVP) (dLVP=LVSP−LVEDP). LVEDP during equilibration was set at 5 to 7 mmHg. All measurements were continuously recorded on a 4-channel record (Astro-Med).
Six hearts from saline-treated rats were continuously perfused with Kreb-Henseleit buffer for 80 min and served as sham control. Hearts from other rats, after 20 min of equilibration, were subjected to 30 min of ischemia followed by 30 min of reperfusion. After completion of the study, hearts were frozen in liquid-nitrogen for β1-AR analysis by binding assay, β1-AR protein analyses by Western blot, β1-AR mRNA analysis by reverse transcription-polymerase chain reaction (RT-PCR™), and measurement of MDA.
The protective effects of β1-AS-ODNs were tested in a rat model of myocardial ischemia-reperfusion. Five groups of SD rats were studied. Sham controls (n=6) were injected with saline and perfused continuously for 80 min without ischemia/reperfusion (I/R). In other groups, hearts were perfused for 20 min and subjected to global ischemia (30 min) followed by reperfusion (30 min). […] AS-ODN+I/R (n=7) or INV-ODN+I/R (n=7) were injected iv. with 1 mg/kg β1-AS-ODN or INV-ODN 4 days before the I/R study was performed.

β1-AR mRNA = test: RT-PCR of β1-AR mRNA in myocardium; format: in vivo, Sprague-Dawley rats; settings: adjusted for GAPDH
Method: Total RNA was isolated from rat myocardium with the single step acid-guanidinum thiocyanate-phenol-chloroform method and quantified (Chomcznski and Sacchi, 1987). One μg of total RNA was reverse transcribed with oligo-dT (Promega) and M-MLV reverse transcriptase (Promega) at 37° C. for one hr. 1.5 μl of RT material was amplified with Taq DNA polymerase (Promega) using a primer pair specific to β1-AR:
PCR™ product was 432 base pairs. For PCR, 35 cycles were used at 95° C. for one minute, 60° C. for one minute, and 72° C. for one min. The RT-PCR™ amplified samples were visualized on 1.8% agarose gels using ethidium bromide. A primer pair of rat GAPDH was used as control:
For PCR™, 35 cycles were used at 95° C. for one min, 60° C. for one min, 72° C. for one min. PCR™ product was 504 base pairs. Relative intensity of bands of interest were analyzed by NSF-300G Scanner (Microtek) (Yang et al., 1998; Li et al., 1999).

[1] = Hematology after repeated injections; format: in vivo, rat (SHR); settings: for MPV: after repeated administration
Method: Safety profiles including liver transaminases, hematology, immune response and tissue pathology were investigated during three repeated injections of β1-AS-ODNs for extended periods of time.
Hematological parameters were measured after three repeated injections of β1-AS-ODN. There was no change in total leukocyte count (WBC), platelet count, hematocrit and mean platelet volume (MPV) among three groups (Table 6).

T2 sequence (P10608 whole entry): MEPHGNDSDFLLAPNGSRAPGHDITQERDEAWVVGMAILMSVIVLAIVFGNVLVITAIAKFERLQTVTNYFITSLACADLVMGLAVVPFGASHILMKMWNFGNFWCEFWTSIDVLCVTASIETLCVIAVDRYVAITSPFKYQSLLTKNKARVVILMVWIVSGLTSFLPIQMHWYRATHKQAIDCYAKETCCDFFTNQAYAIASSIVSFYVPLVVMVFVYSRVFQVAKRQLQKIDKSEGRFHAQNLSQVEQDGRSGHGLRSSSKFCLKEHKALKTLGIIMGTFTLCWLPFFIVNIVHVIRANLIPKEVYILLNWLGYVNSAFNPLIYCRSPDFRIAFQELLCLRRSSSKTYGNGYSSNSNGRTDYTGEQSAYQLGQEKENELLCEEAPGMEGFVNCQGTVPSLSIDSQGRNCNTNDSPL
T1 sequence (P18090 whole entry): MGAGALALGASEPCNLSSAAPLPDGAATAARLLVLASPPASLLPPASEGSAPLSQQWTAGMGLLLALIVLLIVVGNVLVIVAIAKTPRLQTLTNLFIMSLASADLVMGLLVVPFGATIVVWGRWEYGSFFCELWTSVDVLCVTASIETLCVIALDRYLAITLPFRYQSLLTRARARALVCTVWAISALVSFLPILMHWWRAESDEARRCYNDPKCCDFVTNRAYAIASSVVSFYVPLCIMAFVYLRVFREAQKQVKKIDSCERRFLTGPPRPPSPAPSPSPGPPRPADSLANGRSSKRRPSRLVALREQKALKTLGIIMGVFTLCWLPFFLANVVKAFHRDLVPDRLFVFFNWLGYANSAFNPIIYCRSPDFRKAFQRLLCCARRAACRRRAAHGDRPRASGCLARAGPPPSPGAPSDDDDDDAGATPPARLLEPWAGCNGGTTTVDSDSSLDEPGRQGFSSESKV

## 5′-AGCCGTACCCGCGCC-3′ (phosphorothioate backbone, further chemistry not given here) [Inverted ODN, 15-mer inverted ODN control, reference compound]
Total (β1+β2) β-ARs
  Bmax, Total (β1+β2): 26.3 ± 3.0 fmol/mg
β1-ARs; SHR cardiac ventricles, 1 mg/kg i.v., 4 days
  effect on either β-AR subtype: no effect
β1-ARs
  Bmax, β1: 18.1 ± 2.3 fmol/mg
β2-ARs
  Bmax, β2: 8.7 ± 0.5 fmol/mg
Isolated rat heart
  ischemia-reperfusion-induced myocardial dysfunction (LVSP, dLVP, LVEDP, CPP): no effect
  ischemia-reperfusion induced ventricular abnormality (dLVP, CPP, LVEDP): no effect
β1-AR mRNA
  increase of mRNA for β1-AR in myocardium: not significantly affected
[1]
  MPV: 7.2 ± 0.20 fL
[1]; rat, in vivo
  WBC: 5.75 ± 1.15 10^3/mm^3
  hematocrit: 46.0 ± 0.1%
  platelet: 706 ± 28 10^3/mm^3

## 5′-CCGCGCCCATGCCGA-3′ (phosphorothioate backbone, further chemistry not given here) [β1-AS-ODN, 15-mer antisense ODN targeted to the AUG start codon of rat β1-AR mRNA]
Total (β1+β2) β-ARs
  Bmax, Total (β1+β2): 19.8 ± 1.8 fmol/mg
β1-ARs; after treatment, from ≈70/30
  β1/β2 subtype ratio in the ventricles: ≈ 50/50 and 50/50
β1-ARs
  Bmax, β1: 10.0 ± 1.2 fmol/mg
β1-ARs; single i.v. 1 mg/kg with cationic liposomes 1:2.5
  duration of significant reduction of β1-AR density in SHR hearts: 18 days
β1-ARs; single i.v. 1 mg/kg with cationic liposomes 1:2.5, day 10
  drop in cardiac β1-AR density: 33%
β1-ARs; single i.v. 1 mg/kg with cationic liposomes 1:2.5, day 18
  drop in cardiac β1-AR density: 29%
β2-ARs; SHR hearts, single i.v. 1 mg/kg
  change in Bmax of β2-ARs: no significant change
β2-ARs
  Bmax, β2: 9.9 ± 0.5 fmol/mg
Isolated rat heart; 200 μg/rat 4 days before
  preserving dLVP after ischemia-reperfusion, comparison with atenolol: more effective than atenolol
Isolated rat heart; 1 mg/kg i.v. 4 days before
  overall protective effects, comparison with atenolol: equivalent to or even better than atenolol
  restoration of dLVP, comparison with atenolol: to a greater extent than atenolol
Isolated rat heart
  ischemia-reperfusion-induced myocardial dysfunction (LVSP, dLVP, LVEDP, CPP): markedly attenuated
  ischemia-reperfusion induced ventricular abnormality (dLVP, CPP, LVEDP): beneficial effects; also recorded: markedly attenuated
β1-AR mRNA
  increase of mRNA for β1-AR in myocardium: attenuated the increase
[1]
  MPV: 6.93 ± 0.08 fL
[1]; rat, in vivo
  WBC: 5.48 ± 0.41 10^3/mm^3
  hematocrit: 46.2 ± 0.63%
  platelet: 685 ± 12 10^3/mm^3
  total leukocyte count (WBC), platelet count, hematocrit and MPV: no change
